Twelve compounds from US6756366B1, “Orally active androgens” (Akzo Nobel N.V., priority 1999, dated 2004) can be followed below.

One series concerns serum LH. The series is described as follows: LH suppression assay in mature male castrated rat model. It counts as in vivo. The conditions noted are these: mature male castrated rats, po daily for 4 days in arachis oil suspension, serum LH 3 hours after last oral dose; for ED50: Rattus norvegicus, read-out: ED50 (po) required to suppress serum LH for 50% (±10%). How it is done: The in vivo potency of several androgens of the invention was determined in a mature male castrated rat model, in comparison with MENT.
In this model serum LH is high (50× fold higher than with intact rats, due to the absence of the negative feedback of testicular testosterone). These rats are po treated for 4 days daily with a given compound of the invention in a suspension fluid of arachisoil. Before dosing and 3 hours after the last oral dose blood is collected via tail vene and in the serum LH is determined. Potency of the androgens (ED50) are expressed as the amount (mg/kg) of androgen which suppresses serum LH for 50% (±10%).
The rat LH Time-Resolved Immuno Fluorometric Assay (TR-IFMA) has been developed in house using home made reagents, a monoclonal catching antibody directed against the β-subunit of human chorion gonadotrophin (hCG, which cross react with rat β-subunit) and a biotin labelled detecting antibody (rabbit polyclonal antibody directed against the alfa-subunit of recombinant rat LH). Recombinant rat LH was prepared according to the methods described by Hakola et al (1997). In this two-site-IFMA, only intact rat LH is determined by a final incubation with streptavidin-europium. The detection in the IFMA is based on fluorescence of the lanthanide europium during a relative long exitation period. The concentration range of rat LH standard is 0.001-10 ng/ml, for optimal accuracy measurements of serum LH serum samples were diluted 8-times with assay buffer [Hakola, K., Boogaart, P. V., Mulders, J., de Leeuw, R., Schoonen, W., Heyst, J. V., Swolfs, A., Casteren, J. V., Huhtaniemi, I., and Kloosterboer, H. J., Recombinant rat luteinizing hormone; production by Chinese hamster ovary cells, purification and functional characterization, Molecular & Cellular Endocrinology 128, 47 (1997)].

The nature of series [1]: t1/2 after incubation with human hepatocytes. Format: in vitro ADME. The conditions noted are these: male; cryopreserved human hepatocytes in suspension, 10 nM compound, 37° C., sampled at 0.5, 1 and 3 h, LC-MS/MS. How it is done: (§1) The half-life of a compound as a result of contact with human hepatocytes holds as a reliable indication of metabolic stability. As it is well known that the absorption of this class of steroids is high, this assay provides an in vitro model for oral activity in humans.
(§2) Hepatocytes collected from healthy young (25-45 year) male organ donors were cryo preserved in liquid nitrogen and kept there until use. They were thawed at 37° C. in a waterbath, placed immediately on ice, washed twice in one volume of cold (4° C.) incubation medium [William's medium E (without phenol red) with Glutamax I®, gentamicin 50 μg/ml, insulin 1 μM, hydrocortisone hemisuccinate 10 μM, fetal calf serum 0% (v/v)], counted and the viability checked by Trypan blue exclusion. Cells were incubated as suspensions in 12-wells (non-coated) plates at a nominal density of 0.5×10^6 cells/well in 1.5 ml medium at 37° C. with an air/O2/CO2 mixture (55/40/5). The plates were set on an orbital shaker at approximately 10 rpm.
(§3) The hepatocytes were incubated with 10 nM final concentration of the compound to be tested. The incubations were stopped after 0.5, 1 and 3 h by pipetting the whole incubation mixture into a glass tube and adding one volume of acetone on ice. The acetone was dried under a nitrogen flow at room temperature, the volume adjusted to 1.5 ml and the tubes were centrifuged at 4° C. at 10.000×g for 30 min. The de-proteinized supernatants were collected for LC-MS/MS analysis.

The subject of a further series is human hepatocytes. The series is described as follows: t1/2 after incubation with human hepatocytes. Format: in vitro ADME. The conditions noted are these: cryopreserved human hepatocytes in suspension, 10 nM compound, 37° C., sampled at 0.5, 1 and 3 h, LC-MS/MS. On the procedure: as §1, §2, §3

One may read the melting point as the temperature, or range, at which the solid turns liquid. As for `CC[C@@H]1CC2=CCCC[C@@H]2[C@H]2CC[C@]3(C)[C@@H](O)CC[C@H]3[C@H]12`, the melting point lay in the range of 155 to 157 °C. Consider `CC[C@@H]1CC2=C(CC[C@@H](O)C2)[C@H]2CC[C@]3(C)[C@@H](O)CC[C@H]3[C@H]12`, for which the melting point fell in the range of 98 to 100 °C. On the same count and under the same terms, under `C=C[C@@H]1CC2=C/C(=N/O)CC[C@@H]2[C@H]2CC[C@]3(C)[C@@H](O)CC[C@H]3[C@@H]21` stands 206 to 224 °C. In general, ED50 refers to the dose that gives a 50% effect, or the effect in half of the subjects. What is called half-life is the time in which the quantity being followed falls by half. A higher half-life goes with slow decline. `CC[C@@H]1CC2=CC(=O)CC[C@@H]2[C@H]2CC[C@]3(C)[C@@H](O)CC[C@H]3[C@H]12` [Example 1, (7α,17β)-7-Ethyl-17-hydroxyestr-4-en-3-one] returned a melting point of 142.5 to 143.5 °C. Further, the ED50 in the series on serum LH worked out at 2.5 mg/kg. Further, the half-life at 10 nM in series [1] stood at 48 min. Take `C=C[C@@H]1CC2=CC(=O)CC[C@@H]2[C@H]2CC[C@]3(C)[C@@H](O)CC[C@H]3[C@@H]21` [Example 4, (7α,17β)-7-Ethenyl-17-hydroxyestr-4-en-3-one]: the ED50 in the series on serum LH amounted to 2.5 mg/kg. For the compound `C/C=C/[C@@H]1CC2=CC(=O)CC[C@@H]2[C@H]2CC[C@]3(C)[C@@H](O)CC[C@H]3[C@@H]21` [Example 6a, [7α(E),17β]-17-Hydroxy-7-(1-propenyl)estr-4-en-3-one], in the series with human hepatocytes, the “t1/2 after incubation with human hepatocytes” value stood at 30 min.

In the case of `C[C@]12CC[C@H]3[C@@H]([C@H](C4CC4)CC4=CC(=O)CC[C@@H]43)[C@@H]1CC[C@@H]2O` [Example 10, (7α,17β)-7-Cyclopropyl-17-hydroxyestr-4-en-3-one], the half-life at 10 nM in series [1] worked out at 30 min.

As for `CC[C@@H]1CC2=CC(=O)CC[C@@H]2[C@@H]2[C@@H]1[C@@H]1CC[C@H](O)[C@@]1(C)C[C@@H]2C` [Example 11, (7α,11β,17β)-7-Ethyl-17-hydroxy-11-methylestr-4-en-3-one], in the series with serum LH, the ED50 was found to be 5 mg/kg. The same measure, in the same setting: under `C=C[C@@H]1CC2=CC(=O)CC[C@@H]2[C@@H]2[C@@H]1[C@@H]1CC[C@H](O)[C@@]1(C)C[C@@H]2C` [Example 12, (7α,11β,17β)-7-Ethenyl-17-hydroxy-11-methylestr-4-en-3-one] stands 5 mg/kg.

Compound `CC[C@@H]1CC2=CC(=O)CC[C@@H]2[C@H]2CC[C@]3(CC)[C@@H](O)CC[C@H]3[C@H]12` [Example 13, (7α,17β)-7,13-Diethyl-17-hydroxygon-4-en-3-one] had a half-life at 10 nM in series [1] of 48 min.

In series [1], `C=C[C@@H]1CC2=CC(=O)CC[C@@H]2[C@H]2CC[C@]3(CC)[C@@H](O)CC[C@H]3[C@@H]21` [Example 14, (7α,17β)-7-Ethenyl-13-ethyl-17-hydroxygon-4-en-3-one] displayed a half-life at 10 nM of 20 min. In the case of `C[C@@H]1CC2=CC(=O)CC[C@@H]2[C@H]2CC[C@]3(C)[C@@H](O)CC[C@H]3[C@@H]21` [MENT, 7α-methyl-19-nortestosterone, reference compound], the “ED50 (po) required to suppress serum LH for 50% (±10%)” value with serum LH was 10 mg/kg. In addition, the “t1/2 after incubation with human hepatocytes” value in the series on human hepatocytes is 20 min.
